{
  "source": "patent US11510926B2",
  "about": "“Pharmaceutical salts/co-crystals of pentoxifylline, clonidine and linsidomine with caffeic, protocatechuic or alpha-lipoic acid an use thereof for treatment of pain” (priority 2018, dated 2022)",
  "key": {"[1]": {"system": "CPIP rat model of CRPS", "assay": "Mechanical sensitivity (paw withdrawal threshold, von Frey) after topical application to the ipsilateral hind paw of CPIP rats", "type": "in vivo", "details": "for maximum change in PWTs after topical application: dose response comparison, Lin-CafA has half of the linsidomine content", "from_the_text": "Topical drugs were formulated into ointment-type preparation using a composite, water-soluble polyethylene glycol base system consisting of 40% carbowax (PEG 3350) and 60% PEG 400 (both from Sigma Aldrich). The required amounts of the active ingredients were first weighted out and then added to the already molten base and mixed well. The vehicle treatment consisted of the same water-miscible base ointment without the addition of the active drugs. The Chronic Post-ischemic Pain (CPIP) rat model of CRPS was prepared by inducing prolonged hind paw ischemia and subsequent reperfusion, as previously described by Coderre et. al., Pain, 112(1):94-105, 2004. In short, male Long Evans rats (300-400 g; Charles River, QC, Canada) were anesthetized over a 3-hour period with a bolus (55 mg/kg, intraperitoneally [i.p.]) followed by chronic i.p. infusion (0.15 mL/hour) of sodium pentobarbital (Ceva Sante Animale, Libourne, France) for 2 hours. Following induction of anesthesia, a Nitrile 70 Durometer O-ring (O-rings West, Seattle, Wash.) with an internal diameter of 5.5-mm was slipped around the rat's left hind limb proximal to the ankle joint to effect a complete blockade of arterial blood flow ([…] al., Mol Pain, 4:49, 2008). The ring was left in place for 3 hours, and the rats recovered from anesthesia 30 to 60 minutes following reperfusion. Mechanical Sensitivity Testing As a measure of mechanical sensitivity, paw withdrawal threshold (PWT), was tested on plantar surface of the ipsilateral hind paw of the CPIP rats. The rats were first habituated for 30 minutes in the testing chambers. Nylon monofilaments (von Frey hairs) with thickness designed to apply stimulus intensity ranging between 1 g and 15 g were applied to the plantar surface of the rats' hind-paw. The filaments were applied for 10 seconds or until flexion reflex occurred. PWTs were determined using Chaplan's up and down method after testing with the filaments in either ascending (after negative response) or descending (after positive response) order to find the correct response pattern which was later matched with its corresponding 50% threshold of paw withdrawal (Chaplan et al., J Neurosci Methods, 53:55-63, 1994). Time course measurements of PWTs after vehicle and drug administration were subjected to a repeated measure analysis of variance (ANOVA). Pairwise comparison was performed between PWTs obtained from drug and vehicle treatment groups measured at matching post-treatment times using Tukey's HSD test. Cumulative anti-allodynic effect measured over 180-minute time course experiments was assessed by calculating the area under the curve (AUC) of PWT elevations plotted post-topical application. Comparisons of different drug doses versus vehicle were performed using repeated measure ANOVA followed by Tukey's HSD test. Dose response curves for comparison of anti-allodynic potency were plotted on a semi-log scale with the amount of drug used per application on the X-axis and the AUC of the 180-minute PWT measured or change in PWT obtained post-drug application on the Y-axis. The linear regression of the dose-response curves was then calculated, and their difference analysed using a 1-way ANOVA. The synthesized salts/co-crystals of […], clonidine and […] were formulated into a polyethylene based topical ointment and their analgesic efficacy and potency tested and compared to their parent drugs on the CPIP rat model of CRPS."}, "[2]": {"system": "CPIP rat model of CRPS", "assay": "Systemic absorption control: topical application to the uninjured contralateral paw, PWT of the injured CRPS paw", "type": "in vivo", "details": "concentration previously shown to relieve allodynia; PWT of injured paw at 30, 60, 120 and 180 minutes", "protocol": "Mechanical Sensitivity Testing As a measure of mechanical sensitivity, paw withdrawal threshold (PWT), was tested on plantar surface of the ipsilateral hind paw of the CPIP rats. The rats were first habituated for 30 minutes in the testing chambers. Nylon monofilaments (von Frey hairs) with thickness designed to apply stimulus intensity ranging between 1 g and 15 g were applied to the plantar surface of the rats' hind-paw. The filaments were applied for 10 seconds or until flexion reflex occurred. PWTs were determined using Chaplan's up and down method after testing with the filaments in either ascending (after negative response) or descending (after positive response) order to find the correct response pattern which was later matched with its corresponding 50% threshold of paw withdrawal (Chaplan et al., J Neurosci Methods, 53:55-63, 1994).\nTo assess for any contribution systemic absorption might have to the anti-allodynic effects seen with the novel salts and co-crystals, we performed a control experiment using contralateral topical administration of the compounds. A topical preparation of the salts and co-crystals at a concentration proven to produce anti-allodynia, was applied to the uninjured contralateral paw of the CRPS rats and the effect this had on the PWT of the injured CRPS paw was measured at 30, 60, 120 and 180 minutes post topical application. The PWT obtained at 30, 60, 120 and 180 minutes post topical application were then compared with the values obtained after direct topical application on the injured CPRS paw."}},
  "data": [
    {"compound": "O=C(O)/C=C/c1ccc(O)c(O)c1", "note": "[CafA, caffeic acid, reference compound]", "values": [
      {"measurement": "anti-allodynic effects of topical administration on its own", "setting": "[1]; CafA alone, FIG. 9C", "value": "no anti-allodynic effects"},
      {"measurement": "anti-allodynic effect upon topical application", "setting": "[1]; CafA alone, three concentrations corresponding to W/W levels in the Pntx-CafA co-crystal, n=10", "value": "no anti-allodynic effect"}
    ]},
    {"compound": "Clc1cccc(Cl)c1NC1=NCCN1.O=C(O)CCCCC1CCSS1", "note": "[Clon-ALA, clonidine α-lipoate]", "values": [
      {"measurement": "rise in PWTs compared to vehicle", "setting": "[1]; 0.025% w/w, 30 minutes post-application", "value": "significant rise in PWTs"},
      {"measurement": "duration of elevated PWTs", "setting": "[1]; 0.05% w/w, compared to 0.025% (30 minutes)", "value": "stay significantly higher for twice as long"},
      {"measurement": "increase in potency", "setting": "[1]; Clon-ALA compared to Clon-HCl", "value": "~2", "unit": "×"},
      {"measurement": "leftward shift of x-intercept of the dose response curve", "setting": "[1]; Clon-ALA compared to Clon-HCl, p=0.04", "value": 0.265, "unit": "log units"},
      {"measurement": "relief of mechanical hypersensitivity", "setting": "[1]; topical Clon-ALA, different doses, n=7", "value": "dose-dependently, relieves mechanical hypersensitivity"},
      {"measurement": "anti-allodynic effects when applied to the contralateral (uninjured) paw", "setting": "[2]", "value": "no anti-allodynic effects"}
    ]},
    {"compound": "Nc1c[n+](N2CCOCC2)no1.O=C([O-])/C=C/c1ccc(O)c(O)c1", "note": "[Lin-CafA, linsidomine caffeate]", "values": [
      {"measurement": "elevation of PWTs compared to vehicle", "setting": "[1]; 1.6% w/w, 30, 60 and 120 minutes post-application", "value": "significantly elevates PWTs to non-allodynic values"},
      {"measurement": "increase in potency", "setting": "[1]; Lin-CafA compared to Lin-Cl", "value": "~2.5", "unit": "fold"},
      {"measurement": "leftward shift of x-intercept of the dose response curve", "setting": "[1]; Lin-CafA compared to Lin-Cl, p=0.0026", "value": 0.3966, "unit": "log units"},
      {"measurement": "efficacy and potency compared with linsidomine chloride", "setting": "[1]; comparison of dose response curves", "value": "greater efficacy and potency"},
      {"measurement": "maximum change in PWTs after topical application", "setting": "[1]", "value": "9.6±1.15"},
      {"measurement": "anti-allodynic effect compared to vehicle", "setting": "[1]; topical W/W 1.6% and 0.8%, for as long as 120 minutes post-application, n=9", "value": "significant anti-allodynic effect"},
      {"measurement": "anti-allodynic effects when applied to the contralateral (uninjured) paw", "setting": "[2]", "value": "no anti-allodynic effects"}
    ]},
    {"compound": "O=C(O)c1ccc(O)c(O)c1", "note": "[PCA, protocatechuic acid, reference compound]", "values": [
      {"measurement": "anti-allodynic effect compared to vehicle", "setting": "[1]; PCA alone, topical, at the w/w doses contained in the Pntx-PCA co-crystal", "value": "does not produce significant anti-allodynic effects"}
    ]},
    {"compound": "CC(=O)CCCCn1c(=O)c2c(ncn2C)n(C)c1=O.O=C(O)C=Cc1ccc(O)c(O)c1", "note": "[Pntx-CafA, pentoxifylline caffeate]", "values": [
      {"measurement": "anti-allodynic potency in linear segment of dose-response curve", "setting": "[1]; Pntx-CafA 2% W/W and 1% W/W compared to Pntx alone", "value": "more potent anti-allodynic effect"},
      {"measurement": "elevation of PWTs compared to vehicle", "setting": "[1]; topical 2% W/W, 60, 120 and 180 minutes post application, n=10", "value": "significant and sustained elevation of PWTs"},
      {"measurement": "anti-allodynic effect at higher dose", "setting": "[1]; topical 4% W/W compared to 2% W/W", "value": "did not improve"}
    ]},
    {"compound": "[NH-]c1c[n+](N2CCOCC2)no1", "note": "[linsidomine chloride, reference compound]", "values": [
      {"measurement": "maximum change in PWTs after topical application", "setting": "[1]", "value": "6.23±0.99"}
    ]},
    {"compound": "pentoxifylline protocatechuate [Pntx-PCA]", "values": [
      {"measurement": "cumulative 3-hour anti-allodynic effect", "setting": "[1]; 2.5% W/W Pntx-PCA (1.5% Pntx and 1% PCA) compared to 3.5% Pntx and 2% PCA W/W", "value": "significantly exceeds the effect achieved by double the amount of its constituent drugs"},
      {"measurement": "increase in potency", "setting": "[1]; Pntx-PCA compared to Pntx, from shift of log-dose response curve", "value": "~4", "unit": "fold"},
      {"measurement": "leftward shift of the log-dose response curve", "setting": "[1]; Pntx-PCA compared to Pntx, p=0.0113", "value": 0.59, "unit": "log units"},
      {"measurement": "anti-allodynic effect (PWT) compared to ointment base alone", "setting": "[1]; topical 5 and 10% W/W, ipsilateral hind paw, 30 to 60 minutes post-application, n=8", "value": "significant anti-allodynic effects"},
      {"measurement": "anti-allodynic effects when applied to the contralateral (uninjured) paw", "setting": "[2]", "value": "no anti-allodynic effects"}
    ]},
    {"compound": "pentoxifylline-gallic acid [Pntx-GallA]", "values": [
      {"measurement": "anti-allodynic effects of topical formulations", "setting": "[1]; Pntx-GallA, CRPS rats, overall", "value": "modest anti-allodynic effects"},
      {"measurement": "difference in change in PWT versus respective doses of Pntx", "setting": "[1]; different doses, 3 hours of testing following topical application", "value": "no significant measurable difference"},
      {"measurement": "improvement in PWT compared to vehicle", "setting": "[1]; observed at the only dose of 4% W/W, p<0.05", "value": "significant improvement in PWT"}
    ]}
  ]
}
